From the supplement of paper PMC11061612

Legend:
[1] = test system: LC-1-sq (Squamous Cell Lung Carcinoma); test: combination Emax (second highest fraction inhibited in the dose matrix, 72 h); higher = more inhibition; extreme values may be limits of the assay
How it was run: (§1)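 Cell lines in DMEM/F12 or RPMI with 10% FBS were plated in 1536-well plates, held 24 hours at 37°C, 5% CO2, then given two-drug dose matrices for 72 hours (DMSO typically 0.2%). Viability was read by CellTiter-Glo 2.0 luminescence and scaled as inhibition from 0 (vehicle wells) to 1 (blank wells). Combination Emax is the second-highest inhibition in the matrix; Bliss excess is observed combination effect minus expected EA + EB − EA·EB, EA and EB being single-agent effects.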

[2] = test system: CADO-ES1 (Ewing's Sarcoma); test: as above
How it was run: as §1

[3] = test system: EJM (Plasma Cell Myeloma); test: as above
How it was run: as §1

[4] = test system: NCI-H1838 (Lung Adenocarcinoma); test: as above
How it was run: as §1

[5] = test system: HCC1937 (Breast Carcinoma); test: as above
How it was run: as §1

Hey (Ovarian Carcinoma) [6] = test: as above
How it was run: as §1

[7] = test system: NCI-H650 (Lung Adenocarcinoma); test: as above
How it was run: as §1

EW-1 (Ewing's Sarcoma) [8] = test: as above
How it was run: as §1

[9] = test system: HCC2998 (Colorectal Carcinoma); test: as above
How it was run: as §1

[10] = test system: HCC1500 (Breast Carcinoma); test: as above
How it was run: as §1

[11] = test system: G-401 (Other Solid Carcinomas); test: as above
How it was run: as §1

[12] = test system: ALL-SIL (T-Lymphoblastic Leukemia); test: as above
How it was run: as §1

[13] = test system: KOPN-8 (B-Lymphoblastic Leukemia); test: as above
How it was run: as §1

[14] = test system: OACM5-1 (Esophageal Adenocarcinoma); test: as above
How it was run: as §1

[15] = test system: NCI-H1092 (Small Cell Lung Carcinoma); test: as above
How it was run: as §1

[16] = test system: NCI-H2122 (Lung Adenocarcinoma); test: as above
How it was run: as §1

[17] = test system: LC-1-sq (Squamous Cell Lung Carcinoma); test: Bliss excess, mean over the matrix (fraction); higher = more synergy
How it was run: as §1

[18] = test system: CADO-ES1 (Ewing's Sarcoma); test: as above
How it was run: as §1

[19] = test system: EJM (Plasma Cell Myeloma); test: as above
How it was run: as §1

[20] = test system: NCI-H1838 (Lung Adenocarcinoma); test: as above
How it was run: as §1

[21] = test system: HCC1937 (Breast Carcinoma); test: as above
How it was run: as §1

Hey (Ovarian Carcinoma) [22] = test: as above
How it was run: as §1

[23] = test system: NCI-H650 (Lung Adenocarcinoma); test: as above
How it was run: as §1

EW-1 (Ewing's Sarcoma) [24] = test: as above
How it was run: as §1

[25] = test system: HCC2998 (Colorectal Carcinoma); test: as above
How it was run: as §1

[26] = test system: HCC1500 (Breast Carcinoma); test: as above
How it was run: as §1

[27] = test system: G-401 (Other Solid Carcinomas); test: as above
How it was run: as §1

[28] = test system: ALL-SIL (T-Lymphoblastic Leukemia); test: as above
How it was run: as §1

[29] = test system: KOPN-8 (B-Lymphoblastic Leukemia); test: as above
How it was run: as §1

[30] = test system: OACM5-1 (Esophageal Adenocarcinoma); test: as above
How it was run: as §1

[31] = test system: NCI-H1092 (Small Cell Lung Carcinoma); test: as above
How it was run: as §1

[32] = test system: NCI-H2122 (Lung Adenocarcinoma); test: as above
How it was run: as §1
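Throughout, for Bliss excess, mean over the matrix: after 72 h of two-drug dosing.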

SMILES	combination Emax [1]	combination Emax [2]	combination Emax [3]	combination Emax [4]	combination Emax [5]	combination Emax (Hey (Ovarian Carcinoma) [6])	combination Emax [7]	combination Emax (EW-1 (Ewing's Sarcoma) [8])	combination Emax [9]	combination Emax [10]	combination Emax [11]	combination Emax [12]	combination Emax [13]	combination Emax [14]	combination Emax [15]	combination Emax [16]	Bliss excess [17]	Bliss excess [18]	Bliss excess [19]	Bliss excess [20]	Bliss excess [21]	Bliss excess (Hey (Ovarian Carcinoma) [22])	Bliss excess [23]	Bliss excess (EW-1 (Ewing's Sarcoma) [24])	Bliss excess [25]	Bliss excess [26]	Bliss excess [27]	Bliss excess [28]	Bliss excess [29]	Bliss excess [30]	Bliss excess [31]	Bliss excess [32]
COc1nnc2ccc(N3CCC(c4ccc(OCCN5CCN(C)C(=O)[C@H]5C)cc4)CC3)nn12 [AZD5153] + CN(CC[C@H](CSC1=CC=CC=C1)NC2=C(C=C(C=C2)S(=O)(=O)NC(=O)C3=CC=C(C=C3)N4CCC(CC4)[C@H](C5=CC=CC=C5C6=CC=C(C=C6)Cl)O)S(=O)(=O)C(F)(F)F)CCO [AZD4320] (first compound max 1 µM, 7x7, partner max 1 µM)	0.715	0.618	0.824	0.194	0.396	0.562	0.512	0.718	0.967	0.983	0.806	1	1	0.698	0.924	0.759	0.0178	-0.0641	0.106	-0.0272	0.0178	0.0787	0.0209	0.0591	-0.0002	-0.0002	-0.026	0.0324	0.0349	0.0552	0.0381	-0.0537
C[C@@H](c1ccc2nccn2c1)n1nnc2ncc(-c3cnn(C)c3)nc21 [Savolitinib] + CN(CC[C@H](CSC1=CC=CC=C1)NC2=C(C=C(C=C2)S(=O)(=O)NC(=O)C3=CC=C(C=C3)N4CCC(CC4)[C@H](C5=CC=CC=C5C6=CC=C(C=C6)Cl)O)S(=O)(=O)C(F)(F)F)CCO [AZD4320] (first compound max 1 µM, 7x7, partner max 1 µM)	0.309	0.706	0.278	0.205	0.319	0.125	0.181	0.574	0.511	0.998	0.276	1	0.967	0.216	0.857	0.252	-0.059	0.0075	0.0389	-0.01	-0.0666	-0.0466	-0.0723	-0.0384	-0.0901	-0.0104	-0.0486	-0.0135	0.111	-0.0435	-0.0878	-0.0092
CC(=O)c1c(C)c2cnc(Nc3ccc(N4CCNCC4)cn3)nc2n(C2CCCC2)c1=O [Palbociclib] + CN(CC[C@H](CSC1=CC=CC=C1)NC2=C(C=C(C=C2)S(=O)(=O)NC(=O)C3=CC=C(C=C3)N4CCC(CC4)[C@H](C5=CC=CC=C5C6=CC=C(C=C6)Cl)O)S(=O)(=O)C(F)(F)F)CCO [AZD4320] (first compound max 10 µM, 7x7, partner max 1 µM)	0.224	0.76	0.56	0.348	0.504	0.357	0.172	0.884	0.934	0.985	0.974	1	1	0.61	0.915	0.684	-0.0469	-0.149	-0.0016	-0.0748	-0.0676	-0.105	-0.088	-0.0009	-0.0452	-0.0551	0.0091	-0.0064	0.0277	0.0021	-0.0197	-0.0482
